Test results taken from patent US4093574A, “Somatostatin analogs and intermediates thereto” (Eli Lilly and Company, priority 1977, dated 1978).
Where a SMILES comes first, the peptide text is derived from it. Bridges are numbered along the chain shown (N, C = ends). [ ]: non-standard residue; d: D form.

What was measured:
[1] = test system: gastric HCl secretion induced by the C-terminal tetrapeptide of gastrin; experiment: in vivo inhibition of gastric acid secretion in dogs with chronic fistula and Heidenhain pouch
Description: D-Ser^2, D-Trp^8 -somatostatin was tested in dogs for its in vivo inhibition of gastric acid secretion. In six dogs with chronic fistula and Heidenhain pouch, gastric HCl secretion was induced by infusion of the C-terminal tetrapeptide of gastrin at 0.5 μg/kg-hr. Each dog served as its own control, receiving on a separate day only the tetrapeptide. On another day, the six dogs received the tetrapeptide, and, after one hour of steady state secretion of HCl, D-Ser^2, D-Trp^8 -somatostatin was infused at 0.20 μg/kg-hr. for one hour. Collection of gastric acid samples was continued for an additional 1.5 hours at 15 minute intervals. The samples were titrated to pH 7 with an automatic titrator. The maximal inhibitory effect of the D-Ser^2, D-Trp^8 -somatostatin was extrapolated against the dose-response curve of somatostatin, and the relative potency of the analog to that of somatostatin is expressed as percent activity. D-Ser^2, D-Trp^8 -somatostatin inhibited steady state acid secretion induced by the C-terminal tetrapeptide of gastrin by 73.5 ± 4.8% standard error of mean. This effect is equivalent to that of 0.545 μg/kg-hr. of somatostatin. Its activity relative to that of somatostatin thus is 273%.

gut motility = experiment: action on gut motility in conscious dogs (intralumenal pressure); format: in vivo; conditions: intravenous infusion over ten minutes, pylorus, duodenum, antrum
Description: D-Ser^2, D-Trp^8 -somatostatin also was tested for its action on gut motility in conscious dogs. Three dogs having intralumenal catheters placed in the antrum, duodenum, and pylorus were used. Pressure changes in the gut lumen were recorded on a Visicorder using strain gauges and miniature light beam galvanometers. After a steady state control was established, D-Ser^2, D-Trp^8 -somatostatin was infused intravenously over a ten minute period. […] This compared to a minimum effective dose of 0.125-0.25 μg./kg.--10 minutes for somatostatin itself.

pancreatic secretion = experiment: inhibition of pancreatic secretion in dogs with pancreatic and total gastric fistula; format: in vivo
Description: In three dogs having both pancreatic and total gastric fistula, secretion from the pancreas was induced by infusion of […] at 2 units/kg-hr. and cholecystokinin at 0.45 unit/kg-hr., and gastric HCl by infusion of tetragastrin at 0.5 μg/kg-hr. After a steady response was established, each dog received D-Ser^2, D-Trp^8 -somatostatin for one hour at 0.2 μg/kg-hr. The peak inhibitory effect expressed as percent change over control for total protein was -76%. This corresponds to the inhibitory effect obtained by administration of about 0.6 μg/kg-hr. of somatostatin.

growth hormone secretion = experiment: release of growth hormone in sodium pentobarbital-stimulated rats; format: in vivo, male Spraque-Dawley rats; conditions: serum GH at 20 minutes
Description: D-Ser^2, D-Trp^8 -somatostatin also was tested for its activity with respect to the release of growth hormone. The procedure which was employed is carried out using male Spraque-Dawley rats weighing 100-120 grams (Laboratory Supply Company, Indianapolis, Ind.). The test is a modification of the method of P. Brazeau, W. Vale, and R. Guilleman, Endocrinology, 94 184 (1974). In this assay, five groups of eight rats each were employed. Sodium pentobarbital was administered intraperitoneally to all of the rats to stimulate growth hormone secretion. One group served as the control and received only saline. Two of the groups received somatostatin, one at 2 μg./rat, subcutaneously, and the other at 50 μg./rat, subcutaneously. The other two groups received D-Ser^2, D-Trp^8 -somatostatin, one at 2 μg./rat, subcutaneously, and the other at 50 μg./rat, subcutaneously. The serum concentration of growth hormone was measured 20 minutes after simultaneous administration of sodium pentobarbital and test compound. The degree of inhibition of serum growth hormone concentration then was determined with respect to the control group, and the relative activities of D-Ser^2, D-Trp^8 -somatostatin and somatostatin itself were compared. […]

[2] = test system: glucagon and insulin secretion; experiment: in vivo inhibition of glucagon and insulin secretion upon stimulation with L-alanine; parameters: species or system mongrel dogs; conditions: fasted dogs, intravenous infusion
Description: D-Ser^2, D-Trp^8 -somatostatin was tested for its in vivo activity in inhibiting glucagon and insulin secretion upon stimulation with L-alanine. Normal mongrel dogs of either sex were fasted overnight. Control blood samples were obtained, and then an intravenous infusion of saline, somatostatin, or D-Ser^2, D-Trp^8 -somatostatin was started. After 30 minutes, L-alanine additionally was administered intravenously for a period of 15 minutes. The infusion of saline, somatostatin, or D-Ser^2, D-Trp^8 -somatostatin was continued for 15 minutes after completion of the L-alanine infusion. From the above it was determined that the minimal effective concentration of D-Ser^2, D-Trp^8 -somatostatin is about 25 nanograms/kg./min. whereas the minimal effective concentration of somatostatin is about 100 nanograms/kg./min.

C[C@H](N)C(=O)N[C@H](CO)C(=O)N[C@H]1CSSC[C@@H](C(=O)O)NC(=O)[C@H](CO)NC(=O)[C@H]([C@@H](C)O)NC(=O)[C@H](Cc2ccccc2)NC(=O)[C@H]([C@@H](C)O)NC(=O)[C@H](CCCCN)NC(=O)[C@@H](Cc2c[nH]c3ccccc23)NC(=O)[C@H](Cc2ccccc2)NC(=O)[C@H](Cc2ccccc2)NC(=O)[C@H](CC(N)=O)NC(=O)[C@H](CCCCN)NC1=O [D-Ser^2, D-Trp^8 -somatostatin] (H-A[dS]CKNFF[dW]KTFTSC-OH; disulfide 3-14)
dose of somatostatin with equivalent effect on acid secretion ([1]; analog at 0.20 μg/kg-hr., extrapolated against dose-response curve of somatostatin): 0.545 μg/kg-hr. | inhibition of steady state acid secretion induced by the C-terminal tetrapeptide of gastrin ([1]; infused at 0.20 μg/kg-hr. for one hour, ± standard error of mean): 73.5 ± 4.8% | activity relative to that of somatostatin (gastric acid secretion) ([1]; relative potency expressed as percent activity): 273% | effect on intralumenal pressure (gut motility): initially increased the intralumenal pressure in the pylorus and then decreased it whereas the pressure in the duodenum and the antrum remained depressed throughout the test | peak inhibitory effect, percent change over control for total protein (pancreatic secretion; 0.2 μg/kg-hr for one hour, pancreatic secretion induced by secretin and cholecystokinin): -76% | dose of somatostatin giving corresponding inhibitory effect on pancreatic secretion (pancreatic secretion; analog at 0.2 μg/kg-hr): about 0.6 μg/kg-hr. | inhibition of growth hormone secretion over control (growth hormone secretion; 2 μg./rat subcutaneously): same effect on growth hormone secretion as somatostatin | inhibition of growth hormone secretion over control (growth hormone secretion; 50 μg./rat subcutaneously): 66% | minimal effective concentration for inhibiting glucagon and insulin secretion [2]: about 25 nanograms/kg./min.
